Experimental data reported in patent publication EP3075378A1, “ANTI-INFLAMMATORY AGENT AND MELANIN PRODUCTION SUPPRESSANT” (Kao Corporation, priority 2013, dated 2015).

Tests used:
[1] = Test of melanin production suppression, using three-dimensional cultured skin model; format: cell-based, human; conditions: Homo sapiens, 264 h; Addition concentration 5 mmol/L; method as Example 6; relative to control (H2O) 100; read-out: Melanin amount (%)
Procedure: (§1) A three-dimensional cultured skin model (MEL-300-A, manufactured by MatTek Corporation) composed of normal human epidermal melanocytes and epidermal keratinocytes was cultured, using the attached medium to which factors inducing melanin production were added. 25 µL of a pentaerythritol solution (1 or 5 mmol/L) was added onto the keratinous layer of the skin model. The skin model was cultured for 11 days exchanging the medium and the test substance solution every 2 to 3 days, and then the skin model was washed, and the cell survival rate was measured using Alamar Blue (manufactured by Invitrogen). In addition, the skin model was dissolved under heating in SOLVABLE (manufactured by Perkin Elmar), and the absorbance (405 nm) was measured and the amount of melanin was calculated relative to a standard determined by similarly dissolving melanin (manufactured by SIGMA) in SOLVABLE. The amount of melanin was determined relative to 100 (%) of the control (H2O addition).
(§2) The test method is similar to that of Example 6.

[2] = test system: three-dimensional cultured skin model (MEL-300-A) composed of normal human epidermal melanocytes and epidermal keratinocytes; experiment: Cell survival rate (Alamar Blue) in three-dimensional cultured skin model; format: cell-based
Procedure: as §1, §2

[3] = test system: Normal human epidermal cells; experiment: Test-1 of PGE2 production suppression (arachidonic acid added); format: cell-based; conditions: culture supernatant after one day, control 1711.7 ± 25.91
Procedure: Normal human epidermal cells were seeded on a 24 well plate by 2 × 10^5 each, and cultured for 2 days on a MCDB153 medium. The medium was exchanged with a MCDB153 medium containing arachidonic acid (manufactured by Wako Pure Chemical Industries, Ltd.), which is a substrate of PGE2, and pentaerythritol (manufactured by JUNSEI CHEMICAL CO., LTD.) or the two acetal derivatives of pentaerythritol (the compounds of Examples 1 and 2), and the cells were further cultured for one day. As a control, purified water was added instead of pentaerythritol or the acetal derivative of pentaerythritol. After completion of the culture, the amount of PGE2 released in the cultured supernatant was quantified using a PGE2 measurement kit (manufactured by Cayman Chemical Company). In addition, in the same manner as the control, a control group to which purified water was added, but arachidonic acid was not added, was provided.

[4] = test system: Normal human epidermal cells; experiment: Test-2 of PGE2 production suppression (UVB irradiation); format: cell-based; conditions: after 30 mJ/cm^2 UVB, culture supernatant after one day, control 670.1 ± 23.97
Procedure: Normal human epidermal cells were seeded on a 24 well plate by 2 × 10^5 each, and cultured for two days on a MCDB153 medium. The medium was replaced with HEPES Buffer, and was irradiated with 30 mJ/cm^2 UVB using a UVB lamp (TOREX FL20S and E-30/DMR 20W manufactured by TOSHIBA MEDICAL SUPPLY CO., LTD.). The intensity of ultraviolet rays was measured with a digital type ultraviolet intensity meter (manufactured by Ultraviolet). After the UVB irradiation, the medium was exchanged with a MCDB153 medium containing pentaerythritol (manufactured by JUNSEI CHEMICAL CO., LTD.), and further cultured for one day. As a control, purified water was added instead of pentaerythritol. After completion of the culture, the amount of PGE2 released in the culture supernatant was quantified using a PGE2 measurement kit (manufactured by Cayman Chemical Company). In addition, in the same manner as the control, a control group containing purified water and not irradiated with UVB was provided.

[5] = test system: three-dimensional cultured skin model (MEL-300-A) composed of normal human epidermal melanocytes and epidermal keratinocytes; experiment: Test of melanin production suppression, using three-dimensional cultured skin model; format: cell-based; conditions: 25 µL on keratinous layer, 11 days culture, relative to 100 (%) of control (H2O)
Procedure: as §1, §2

SMILES | activity at 5000 µM [1] [%] | PGE2 amount (pg/mL) ± SD ([3]; sample concentration 0.5 µM) [pg/mL] | PGE2 amount (pg/mL) ± SD ([3]; sample concentration 5.0 µM) [pg/mL] | other results
OC[C@@H](O)[C@@H](O)CO [Erythritol, reference compound] | 97 | – | – | –
OC[C@@H](O)[C@@H](O)[C@H](O)[C@H](O)CO [Mannitol, reference compound] | 96.3 | – | – | cell toxicity ([2]; 5 mmol/L, Example 7, method as Example 6): not detected
OCC(CO)(CO)CO [Pentaerythritol] | – | 789.2 ± 168.61 | 1151.3 ± 6.73 | PGE2 amount (pg/mL) ± SD ([4]; sample concentration 0.05 µM): 565.5 ± 28.10 pg/mL; PGE2 amount (pg/mL) ± SD ([4]; sample concentration 0.5 µM): 522.8 ± 50.40 pg/mL; PGE2 amount (pg/mL) ± SD ([4]; sample concentration 5.0 µM): 512.3 ± 65.31 pg/mL; amount of melanin (%) ([5]; 1 mmol/L): 83.8%; amount of melanin (%) ([5]; 5 mmol/L): 76.7%; cell toxicity ([2]; 1 or 5 mmol/L, any test addition concentration, 11 days culture): not detected
CC1(C)OCC2(CO1)COC(C)(C)OC2 [diisopropylidene pentaerythritol] | – | 746.0 ± 28.70 | 1142.0 ± 19.94 | –
CC1(C)OCC(CO)(CO)CO1 [monoisopropylidene pentaerythritol] | – | 824.7 ± 28.78 | 790.5 ± 11.64 | –
